Test results reported in patent US20240407363A1 (priority 2021, published 2024).

Assays:
[1] = tested on: X. perforans (a copper-resistant strain QL); experiment: Greenhouse experiment, bacterial spot of tomato (cv. FL 47), compounds sprayed approx. 2 h before inoculation; type: in vivo; settings: for BS1 average disease severity of bacterial spot on two mostly infected leaves / WHOLE1 disease severity over the whole plant: 10 d after inoculation; for BS2 average disease severity of bacterial spot on two mostly infected leaves / WHOLE2 disease severity over the whole plant: 12 d after inoculation; for BS3 average disease severity of bacterial spot on two mostly infected leaves / WHOLE3 disease severity over the whole plant: 14 d after inoculation; for AUDPC_BS: two mostly infected leaves, 10, 12, 14 days after inoculation; for AUDPC_WHOLE: whole plant, 10, 12, 14 days after inoculation
Procedure: Tomato (cv. FL 47) was seeded in the greenhouse (the highest temperature was set at 82° F.) and the seedlings with two fully expanded leaves (about 3 weeks after seeding) were transplanted to soilless mix in 6-inch pots. One week after transplanting, treatments with the compounds at the test concentrations were sprayed onto plants until runoff approx. 2 h before inoculation with X. perforans. Untreated plants were used as the control (CK). There were five plants in each treatment and one plant served as one replicate. All plants were inoculated by spraying a bacterial suspension of X. perforans (a copper-resistant strain QL) at 1×10^8 CFU/ml until runoff. Inoculated plants were incubated in a moist chamber overnight (approx. 18 h) to ensure and promote infection by X. perforans. Then the inoculated plants were taken out and placed randomly on a bench inside the greenhouse for disease development. Plants were sprayed with mist periodically to stimulate disease development. When lesions on the leaves were apparent, the percentage of leaf area covered by the lesions, either for the two mostly infected leaves or the whole plant, was rated and recorded for each treatment. Disease rating was conducted at least two times. The area under the disease progress curve (AUDPC) was calculated for each treatment to reflect the disease development over a period if disease rating was carried out three times or more.

[2] = tested on: Xanthomonas perforans; experiment: Field trials on piperidine and pyrrolidine, bacterial spot of tomato, foliar spray; type: in vivo; settings: for AUDPC / BS last rating of bacterial spot severity / YIELD: foliar spray at the concentration given with each treatment; for increase of marketable tomato fruit yield compared to the untreated control (CK) / bacterial spot disease severity and AUDPC compared to the untreated control (CK): pyrrolidine at 128 mg/ml; for bacterial spot disease severity and AUDPC compared to the untreated control (CK): foliar sprays, both independent trials, 2021-2022
Text: Tomato seedlings were transplanted in fall for the first trial (trial 1) and spring for the second trial (trial 2). Treatments were started about two weeks after transplanting following weekly applications for a total of eight weeks. Tomato plants were inoculated with the pathogen Xanthomonas perforans (1-5×10^6 cfu/ml) the following day in the afternoon after the third treatment. Disease severity was rated weekly when bacterial spot symptoms were observed, and area under the disease progress curve (AUDPC) was calculated. Tomato fruit were harvested two to three times for each trial and graded according to the USDA standard. Total fruit yield in each treatment and the untreated control (CK) was subjected to statistical analysis using SAS (version 9.2, SAS Institute Inc., Cary, NC, USA). Disease severity of last rating and AUDPC from each trial were analyzed and presented.
All treatments were applied through a foliar spray at specified concentrations. Piperidine and pyrrolidine were evaluated in two independent trials. Tomato cultivar was ‘Red bounty’ in trial 1, and ‘Varsity’ in trial 2.

[3] = tested on: X. perforans GEV-485; experiment: In vitro MIC and MBC determination in nutrient broth / on NA plates; type: cell-based; settings: three trials
Procedure: X. perforans strain GEV-485, a copper-resistant strain, was used in this study to evaluate the antibacterial activity of Hx. Working cultures of GEV-485 were retrieved from −80° C. storage vials containing bacterial suspensions in 30% glycerol (v/v). Bacterial cells were taken from the storage, streaked on nutrient agar (NA; Difco™ Sparks, MD) plates and incubated for 48 h at 28° C. and single colonies were picked and streaked on NA plates to ensure bacterial purity for further cultures. NA amended with copper (II) sulfate pentahydrate (CuSO4·5H2O) (Fisher Scientific-Hampton, NH) at 20 ppm, was used as copper tolerance selective agent. To prepare the bacterial inoculum, a single bacterial colony was streaked on NA and incubated for 24 h at 28° C. From those plates, loops of bacterial cells were collected and resuspended in SDW amended with 0.01 M MgSO4. The bacterial concentration was adjusted to ˜5.0×10^8 colony-forming units (CFU)/mL based on an optical density (OD) of 0.3 at 600 nm. The in vitro studies were conducted to determine the minimum inhibitory concentration (MIC), minimum bactericidal concentration (MBC), and the antibacterial activity at different time points.
To determine MIC of Hx against X. perforans GEV-485, individual 96-well plates containing 100 μL of nutrient broth (NB) with varied copper and Hx concentrations were inoculated with 100 μL of the GEV-485 suspension at the concentration of 1.0×10^8 CFU/mL. The final chemical concentrations on the wells were 16, 32, 64, 128, 256, 512, 1024, 2048, 4096 and 8192 mg/L. Three wells with 100 µL of NB and 100 μL of the bacterial suspension were the controls. Solutions in all wells were thoroughly mixed by pipetting. The plate was, then, covered with a lid and incubated under stationary conditions at 28° C. for 24 h. The value of MIC for Hx and copper was determined as the minimum concentration (mg/L), at which the bacterial growth was inhibited (the solution was clear), among all tested concentrations of each chemical. After MIC was determined, an aliquot of 20 μL of the solution from the wells that gave a clear solution was plated on NA. […] The MBC was determined as the minimum concentration, at which >99.9% of the initial bacterial populations were killed and no visible growth of the bacterium was observed on the NA plates among all tested concentrations of antimicrobial agents. The experiment was repeated two more times, with three replications for each treatment.

[4] = first value named of two independent trials, piperidine at 64 mg/ml
[5] = second value named of two independent trials, piperidine at 64 mg/ml

C1CCNCC1 [Piperidine, piperidine]
BS1 average disease severity of bacterial spot on two mostly infected leaves ([1]; 32 mg/L = 32 ppm): 24.5 a | WHOLE1 disease severity over the whole plant ([1]; 32 mg/L = 32 ppm): 14.2 a | BS1 average disease severity of bacterial spot on two mostly infected leaves ([1]; 64 mg/L = 64 ppm): 30.0 a | WHOLE1 disease severity over the whole plant ([1]; 64 mg/L = 64 ppm): 10.0 ab | BS2 average disease severity of bacterial spot on two mostly infected leaves ([1]; 32 mg/L = 32 ppm): 33.0 a | WHOLE2 disease severity over the whole plant ([1]; 32 mg/L = 32 ppm): 26.0 ab | BS2 average disease severity of bacterial spot on two mostly infected leaves ([1]; 64 mg/L = 64 ppm): 36.0 a | WHOLE2 disease severity over the whole plant ([1]; 64 mg/L = 64 ppm): 28.0 a | BS3 average disease severity of bacterial spot on two mostly infected leaves ([1]; 32 mg/L = 32 ppm): 35.0 b | WHOLE3 disease severity over the whole plant ([1]; 32 mg/L = 32 ppm): 26.0 ab | BS3 average disease severity of bacterial spot on two mostly infected leaves ([1]; 64 mg/L = 64 ppm): 54.0 a | WHOLE3 disease severity over the whole plant ([1]; 64 mg/L = 64 ppm): 32.0 a | bacterial spot disease compared to CK ([1]; at 32 and 64 mg/L alone): failed to reduce the disease | AUDPC_BS ([1]; 32 mg/L = 32 ppm): 439.3 b | AUDPC_BS ([1]; 64 mg/L = 64 ppm): 546.0 a | AUDPC_WHOLE ([1]; 32 mg/L = 32 ppm): 322.7 ab | AUDPC_WHOLE ([1]; 64 mg/L = 64 ppm): 343.0 a | AUDPC ([2]; Trial 1, cv. Red bounty): 495.9 bc | BS last rating of bacterial spot severity ([2]; Trial 1, cv. Red bounty): 34.6 b % | YIELD ([2]; Trial 1, cv. Red bounty): 3.88 a kg/plant | AUDPC ([2]; Trial 2, cv. Varsity): 394.9 b | BS last rating of bacterial spot severity ([2]; Trial 2, cv. Varsity): 23.8 b % | YIELD ([2]; Trial 2, cv. Varsity): 4.38 a kg/plant | increase of marketable tomato fruit yield compared to the untreated control (CK) [2, 4]: 15.5% | effect on disease reduction compared to ManKocide at the label rate of 2.1 mg/ml ([2]; piperidine at 64 mg/ml, foliar spray): even better than ManKocide® | bacterial spot disease severity and AUDPC compared to the untreated control (CK) ([2]; piperidine at 64 mg/ml): significantly (P<0.05) reduced bacterial spot disease severity at the last rating and the overall disease progress | increase of marketable tomato fruit yield compared to the untreated control (CK) [2, 5]: 17.6%

O=S(=O)([O-])[O-].[Cu+2] [Copper (CuSO4), CuSO4, reference compound]
MIC ([3]; 28° C. for 24 h, copper-resistant strain): 1024 µg/mL | MBC ([3]; >99.9% of initial bacterial populations killed, no visible growth on NA): 2048 µg/mL

pyrrolidine
BS1 average disease severity of bacterial spot on two mostly infected leaves ([1]; 64 mg/L = 64 ppm): 14.0 bc | WHOLE1 disease severity over the whole plant ([1]; 64 mg/L = 64 ppm): 5.1 bc | BS1 average disease severity of bacterial spot on two mostly infected leaves ([1]; 128 mg/L = 128 ppm): 7.5 c | WHOLE1 disease severity over the whole plant ([1]; 128 mg/L = 128 ppm): 1.5 c | BS2 average disease severity of bacterial spot on two mostly infected leaves ([1]; 64 mg/L = 64 ppm): 15.2 bc | WHOLE2 disease severity over the whole plant ([1]; 64 mg/L = 64 ppm): 7.5 cde | BS2 average disease severity of bacterial spot on two mostly infected leaves ([1]; 128 mg/L = 128 ppm): 9.0 c | WHOLE2 disease severity over the whole plant ([1]; 128 mg/L = 128 ppm): 1.8 de | BS3 average disease severity of bacterial spot on two mostly infected leaves ([1]; 64 mg/L = 64 ppm): 17.5 c | WHOLE3 disease severity over the whole plant ([1]; 64 mg/L = 64 ppm): 5.3 c | BS3 average disease severity of bacterial spot on two mostly infected leaves ([1]; 128 mg/L = 128 ppm): 11.0 c | WHOLE3 disease severity over the whole plant ([1]; 128 mg/L = 128 ppm): 3.8 c | bacterial spot disease compared to the untreated control (CK) ([1]; at 64 and 128 mg/L each): significantly (P<0.05) reduced bacterial spot disease | AUDPC_BS ([1]; 64 mg/L = 64 ppm): 219.6 c | AUDPC_BS ([1]; 128 mg/L = 128 ppm): 127.8 cd | AUDPC_WHOLE ([1]; 64 mg/L = 64 ppm): 88.7 days | AUDPC_WHOLE ([1]; 128 mg/L = 128 ppm): 31.2 days | AUDPC ([2]; Trial 1, cv. Red bounty): 466.1 c | BS last rating of bacterial spot severity ([2]; Trial 1, cv. Red bounty): 31.7 b % | YIELD ([2]; Trial 1, cv. Red bounty): 3.95 a kg/plant | AUDPC ([2]; Trial 2, cv. Varsity): 401.8 b | BS last rating of bacterial spot severity ([2]; Trial 2, cv. Varsity): 23.1 b % | YIELD ([2]; Trial 2, cv. Varsity): 3.99 a kg/plant | increase of marketable tomato fruit yield compared to the untreated control (CK) [2, 4]: 15.9% | bacterial spot disease severity and AUDPC compared to the untreated control (CK) ([2]; piperidine at 64 mg/ml): significantly (P<0.05) reduced bacterial spot disease severity at the last rating and the overall disease progress | increase of marketable tomato fruit yield compared to the untreated control (CK) [2, 5]: 5.6%
